Test results as given in ChEMBL document CHEMBL3621068, “Synthesis and biological evaluation of a new class of quinazolinoneazoles as potential antimicrobial agents and their interactions with calf thymus DNA and human serum albumin” (Medchemcomm, 2015).
In brackets after ≈: the same amount, converted by molar mass. Activity calls are given as the source filed them. The rule behind the calls is not given here.

Assays:
Staphylococcus aureus [1] = test: Antibacterial activity against Staphylococcus aureus ATCC 25923 after 24 hrs by micro broth dilution assay; type: functional; conditions: ATCC 25923, 24 h
Aspergillus flavus [2] = test: Antifungal activity against Aspergillus flavus ATCC 204304 after 24 hrs by micro broth dilution assay; type: functional; conditions: ATCC 204304, 24 h
Bacillus spizizenii [3] = test: Antibacterial activity against Bacillus subtilis ATCC 6633 after 24 hrs by micro broth dilution assay; type: functional; conditions: ATCC 6633, 24 h
Pseudomonas aeruginosa = test: Antibacterial activity against Pseudomonas aeruginosa ATCC 27853 a after 24 hrs by micro broth dilution assay; type: functional; conditions: ATCC 27853, 24 h
Cyberlindnera jadinii = test: Antifungal activity against Candida utilis ATCC 9950 after 24 hrs by micro broth dilution assay; type: functional; conditions: Williopsis jadinii, ATCC 9950, 24 h
[4] = Antibacterial activity against Eberthella typhosa ATCC 14028 after 24 hrs by micro broth dilution assay; type: functional; conditions: ATCC 14028, 24 h
Saccharomyces cerevisiae = test: Antifungal activity against Beer yeast ATCC 9763 after 24 hrs by micro broth dilution assay; type: functional; conditions: ATCC 9763, 24 h
Staphylococcus aureus [5] = test: Antibacterial activity against methicillin-resistant Staphylococcus aureus N315 after 24 hrs by micro broth dilution assay; type: functional; conditions: N315, 24 h
Escherichia coli = test: Antibacterial activity against Escherichia coli DH52 after 24 hrs by micro broth dilution assay; type: functional; conditions: DH52, 24 h
Micrococcus luteus = test: Antibacterial activity against Micrococcus luteus ATCC 4698 after 24 hrs by micro broth dilution assay; type: functional; conditions: ATCC 4698, 24 h
Bacillus spizizenii [6] = test: Ratio of chloromycin MIC to compound MIC for Bacillus subtilis ATCC 6633; type: functional
Bacillus sp. = test: Antibacterial activity against Bacillus proteus ATCC 13315 after 24 hrs by micro broth dilution assay; type: functional; conditions: Bacillus sp. (in: firmicutes), ATCC 13315, 24 h
Candida = test: Antifungal activity against Candida mycoderma ATCC 9888 after 24 hrs by micro broth dilution assay; type: functional; conditions: ATCC 9888, 24 h
Candida albicans = test: Antifungal activity against Candida albicans ATCC 10231 after 24 hrs by micro broth dilution assay; type: functional; conditions: ATCC 10231, 24 h
Aspergillus flavus [7] = test: Ratio of fluconazole MIC to compound MIC for Aspergillus flavus ATCC 204304; type: functional
Calf thymus DNA [8] = test: Binding affinity to calf thymus DNA by UV-visible absorption spectroscopy; type: nucleic-acid assay; conditions: Bos taurus
Albumin = Albumin (Homo sapiens, UniProt P02768); test: Binding affinity to human serum albumin assessed as fluorescence quenching at 10^-5 mol/L by fluorescence spectroscopy analysis; type: ADME; conditions: isolated protein, 10 µM
Calf thymus DNA [9] = test: Competitive binding affinity to calf thymus DNA using neutral red up to 2.0 x 10^-5 mol/L by UV-visible absorption spectroscopy; type: nucleic-acid assay; conditions: Bos taurus

Chain of Albumin (P02768 whole entry): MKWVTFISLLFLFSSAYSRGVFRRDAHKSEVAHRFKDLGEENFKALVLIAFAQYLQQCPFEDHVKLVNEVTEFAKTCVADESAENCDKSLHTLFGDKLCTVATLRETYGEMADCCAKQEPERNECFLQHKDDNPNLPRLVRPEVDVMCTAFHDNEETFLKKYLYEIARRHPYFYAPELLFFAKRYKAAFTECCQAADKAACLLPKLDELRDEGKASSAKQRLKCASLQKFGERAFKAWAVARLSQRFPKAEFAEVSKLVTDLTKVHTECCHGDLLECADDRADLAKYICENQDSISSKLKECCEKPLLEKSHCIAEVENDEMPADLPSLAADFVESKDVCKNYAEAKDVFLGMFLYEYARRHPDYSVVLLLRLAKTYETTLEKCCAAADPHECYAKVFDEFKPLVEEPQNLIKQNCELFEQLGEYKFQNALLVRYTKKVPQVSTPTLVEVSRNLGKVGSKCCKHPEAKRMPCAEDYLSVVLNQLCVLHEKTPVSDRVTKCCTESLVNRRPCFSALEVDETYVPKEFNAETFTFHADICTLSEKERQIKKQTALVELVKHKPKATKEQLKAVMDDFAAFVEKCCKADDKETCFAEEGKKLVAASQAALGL

Row | SMILES | MIC (Staphylococcus aureus [1]) | MIC (Aspergillus flavus [2]) | MIC (Bacillus spizizenii [3]) | MIC (Pseudomonas aeruginosa) | MIC (Cyberlindnera jadinii) | MIC [4] | MIC (Saccharomyces cerevisiae) | MIC (Staphylococcus aureus [5]) | MIC (Escherichia coli) | MIC (Micrococcus luteus) | Ratio (Bacillus spizizenii [6]) | MIC (Bacillus sp.) | MIC (Candida) | MIC (Candida albicans) | Ratio (Aspergillus flavus [7]) | K (Calf thymus DNA [8]) | Kq (Albumin) | Activity (Calf thymus DNA [9])
1 | O=c1c2ccc(F)cc2ncn1CCCCCn1cnc([N+](=O)[O-])c1 | 190 µM (≈ 65.6 µg/mL) | 740 µM (≈ 256 µg/mL) | 20 µM (≈ 6.91 µg/mL) | 370 µM (≈ 128 µg/mL) | 370 µM (≈ 128 µg/mL) | 370 µM (≈ 128 µg/mL) | 90 µM (≈ 31.1 µg/mL) | 190 µM (≈ 65.6 µg/mL) | 370 µM (≈ 128 µg/mL) | 50 µM (≈ 17.3 µg/mL) | 5 | 370 µM (≈ 128 µg/mL) | 190 µM (≈ 65.6 µg/mL) | 90 µM (≈ 31.1 µg/mL) | – | – | – | –
2 | O=c1c2ccc(F)cc2ncn1CCCCCCn1cnc([N+](=O)[O-])c1 | 360 µM (≈ 129 µg/mL) | 180 µM (≈ 64.7 µg/mL) | 20 µM (≈ 7.19 µg/mL) | 360 µM (≈ 129 µg/mL) | 360 µM (≈ 129 µg/mL) | 360 µM (≈ 129 µg/mL) | 90 µM (≈ 32.3 µg/mL) | 180 µM (≈ 64.7 µg/mL) | 180 µM (≈ 64.7 µg/mL) | 40 µM (≈ 14.4 µg/mL) | 5 | 90 µM (≈ 32.3 µg/mL) | 40 µM (≈ 14.4 µg/mL) | 40 µM (≈ 14.4 µg/mL) | – | – | – | –
3 | O=c1c2ccc(F)cc2ncn1CCCCCCCCCCn1cnc([N+](=O)[O-])c1 | 310 µM (≈ 129 µg/mL) | 150 µM (≈ 62.3 µg/mL) | 20 µM (≈ 8.31 µg/mL) | 80 µM (≈ 33.2 µg/mL) | 150 µM (≈ 62.3 µg/mL) | 310 µM (≈ 129 µg/mL) | 80 µM (≈ 33.2 µg/mL) | 150 µM (≈ 62.3 µg/mL) | 150 µM (≈ 62.3 µg/mL) | 40 µM (≈ 16.6 µg/mL) | 5 | 80 µM (≈ 33.2 µg/mL) | 40 µM (≈ 16.6 µg/mL) | 40 µM (≈ 16.6 µg/mL) | – | – | – | –
4 | O=c1c2ccc(F)cc2ncn1CCn1cncn1 | 990 µM (≈ 257 µg/mL) | 990 µM (≈ 257 µg/mL) | 490 µM (≈ 127 µg/mL) | 30 µM (≈ 7.78 µg/mL) | 990 µM (≈ 257 µg/mL) | 990 µM (≈ 257 µg/mL) | 490 µM (≈ 127 µg/mL) | 490 µM (≈ 127 µg/mL) | 250 µM (≈ 64.8 µg/mL) | 30 µM (≈ 7.78 µg/mL) | – | 990 µM (≈ 257 µg/mL) | 490 µM (≈ 127 µg/mL) | 990 µM (≈ 257 µg/mL) | – | – | – | –
5 | Cc1ncc([N+](=O)[O-])n1CCCCCn1cnc2cc(Cl)ccc2c1=O | 40 µM (≈ 15 µg/mL) | 20 µM (≈ 7.52 µg/mL) | 20 µM (≈ 7.52 µg/mL) | > 1360 µM | 20 µM (≈ 7.52 µg/mL) | 20 µM (≈ 7.52 µg/mL) | 40 µM (≈ 15 µg/mL) | 20 µM (≈ 7.52 µg/mL) | 20 µM (≈ 7.52 µg/mL) | 40 µM (≈ 15 µg/mL) | – | 20 µM (≈ 7.52 µg/mL) | 20 µM (≈ 7.52 µg/mL) | 20 µM (≈ 7.52 µg/mL) | – | – | – | –
6 | O=c1c2ccc(F)cc2ncn1CCCCCBr | > 1630 µM | 820 µM (≈ 257 µg/mL) | 1630 µM (≈ 510 µg/mL) | > 1630 µM | 410 µM (≈ 128 µg/mL) | > 1630 µM | 820 µM (≈ 257 µg/mL) | 820 µM (≈ 257 µg/mL) | 1630 µM (≈ 510 µg/mL) | 410 µM (≈ 128 µg/mL) | – | 410 µM (≈ 128 µg/mL) | > 1630 µM | 820 µM (≈ 257 µg/mL) | – | – | – | –
7 | O=c1c2ccc(Cl)cc2ncn1CCCCBr | > 1620 µM | > 1620 µM | 1620 µM (≈ 511 µg/mL) | > 1620 µM | 410 µM (≈ 129 µg/mL) | > 1620 µM | 810 µM (≈ 256 µg/mL) | 810 µM (≈ 256 µg/mL) | 810 µM (≈ 256 µg/mL) | 810 µM (≈ 256 µg/mL) | – | 410 µM (≈ 129 µg/mL) | > 1620 µM | > 1620 µM | – | – | – | –
8 | O=c1c2ccc(Cl)cc2ncn1CCBr | > 1780 µM | > 1780 µM | 1780 µM (≈ 512 µg/mL) | > 1780 µM | 890 µM (≈ 256 µg/mL) | > 1780 µM | 890 µM (≈ 256 µg/mL) | 890 µM (≈ 256 µg/mL) | 1780 µM (≈ 512 µg/mL) | 450 µM (≈ 129 µg/mL) | – | 890 µM (≈ 256 µg/mL) | > 1780 µM | > 1780 µM | – | – | – | –
9 | Cc1ncc([N+](=O)[O-])n1CCCCCCCCCCn1cnc2cc(Cl)ccc2c1=O | 20 µM (≈ 8.92 µg/mL) | 20 µM (≈ 8.92 µg/mL) | 20 µM (≈ 8.92 µg/mL) | > 1150 µM | 20 µM (≈ 8.92 µg/mL) | 20 µM (≈ 8.92 µg/mL) | 40 µM (≈ 17.8 µg/mL) | 40 µM (≈ 17.8 µg/mL) | 20 µM (≈ 8.92 µg/mL) | 20 µM (≈ 8.92 µg/mL) | – | 20 µM (≈ 8.92 µg/mL) | 40 µM (≈ 17.8 µg/mL) | 20 µM (≈ 8.92 µg/mL) | – | – | – | –
10 | Cc1ncc([N+](=O)[O-])n1CCCCCCn1cnc2cc(Cl)ccc2c1=O | 20 µM (≈ 7.8 µg/mL) | 40 µM (≈ 15.6 µg/mL) | 40 µM (≈ 15.6 µg/mL) | > 1310 µM | 20 µM (≈ 7.8 µg/mL) | 20 µM (≈ 7.8 µg/mL) | 20 µM (≈ 7.8 µg/mL) | 20 µM (≈ 7.8 µg/mL) | 40 µM (≈ 15.6 µg/mL) | 40 µM (≈ 15.6 µg/mL) | – | 20 µM (≈ 7.8 µg/mL) | 20 µM (≈ 7.8 µg/mL) | 20 µM (≈ 7.8 µg/mL) | – | – | – | –
11 | Cc1ncc([N+](=O)[O-])n1CCCCCCn1cnc2cc(F)ccc2c1=O | 40 µM (≈ 14.9 µg/mL) | 10 µM (≈ 3.73 µg/mL) | 20 µM (≈ 7.47 µg/mL) | > 1370 µM | 20 µM (≈ 7.47 µg/mL) | 20 µM (≈ 7.47 µg/mL) | 40 µM (≈ 14.9 µg/mL) | 40 µM (≈ 14.9 µg/mL) | 40 µM (≈ 14.9 µg/mL) | 40 µM (≈ 14.9 µg/mL) | – | 40 µM (≈ 14.9 µg/mL) | 20 µM (≈ 7.47 µg/mL) | 20 µM (≈ 7.47 µg/mL) | 84 | – | – | –
12 | Cc1ncc([N+](=O)[O-])n1CCn1cnc2cc(F)ccc2c1=O | 30 µM (≈ 9.52 µg/mL) | 30 µM (≈ 9.52 µg/mL) | 30 µM (≈ 9.52 µg/mL) | > 1610 µM | 30 µM (≈ 9.52 µg/mL) | 30 µM (≈ 9.52 µg/mL) | 30 µM (≈ 9.52 µg/mL) | 30 µM (≈ 9.52 µg/mL) | 30 µM (≈ 9.52 µg/mL) | 50 µM (≈ 15.9 µg/mL) | – | 50 µM (≈ 15.9 µg/mL) | 30 µM (≈ 9.52 µg/mL) | 30 µM (≈ 9.52 µg/mL) | – | 1.41 ×10⁴ L/mol | 0.1 ×10¹² L/mol/s | Active
